This note sets out measurements from patent US8426437B2, “Pyrroloquinoline derivatives and their use as protein kinases inhibitors” (Pierre Fabre Medicament, priority 2005, dated 2013).

Counter-ions that a name gives are not always drawn.

The target of this test is T1, RET (Homo sapiens, UniProt P07949).
T1 construct: purchased Upstate 14-570MG
Put plainly: Inhibition of RET kinase activity, recombinant RET method (Kinase-Glo). The class given is biochemical. The conditions noted are these: RET 2 μg/ml, poly-EY4 substrate, 20 μM ATP, two hours at 30° C. Put shortly:
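Recombinant RET at 2 μg/ml in 20 mM MOPS/NaOH pH 7.0, 1 mM EDTA, 5% glycerol, 0.01% Brij35, 0.1% 2-mercaptoethanol, 1 mg/ml BSA; compounds 10 nM–30 μM final.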
A general note: Kinase-Glo reads ATP consumption through a luciferase reaction.

T1 sequence (P07949 29-1114): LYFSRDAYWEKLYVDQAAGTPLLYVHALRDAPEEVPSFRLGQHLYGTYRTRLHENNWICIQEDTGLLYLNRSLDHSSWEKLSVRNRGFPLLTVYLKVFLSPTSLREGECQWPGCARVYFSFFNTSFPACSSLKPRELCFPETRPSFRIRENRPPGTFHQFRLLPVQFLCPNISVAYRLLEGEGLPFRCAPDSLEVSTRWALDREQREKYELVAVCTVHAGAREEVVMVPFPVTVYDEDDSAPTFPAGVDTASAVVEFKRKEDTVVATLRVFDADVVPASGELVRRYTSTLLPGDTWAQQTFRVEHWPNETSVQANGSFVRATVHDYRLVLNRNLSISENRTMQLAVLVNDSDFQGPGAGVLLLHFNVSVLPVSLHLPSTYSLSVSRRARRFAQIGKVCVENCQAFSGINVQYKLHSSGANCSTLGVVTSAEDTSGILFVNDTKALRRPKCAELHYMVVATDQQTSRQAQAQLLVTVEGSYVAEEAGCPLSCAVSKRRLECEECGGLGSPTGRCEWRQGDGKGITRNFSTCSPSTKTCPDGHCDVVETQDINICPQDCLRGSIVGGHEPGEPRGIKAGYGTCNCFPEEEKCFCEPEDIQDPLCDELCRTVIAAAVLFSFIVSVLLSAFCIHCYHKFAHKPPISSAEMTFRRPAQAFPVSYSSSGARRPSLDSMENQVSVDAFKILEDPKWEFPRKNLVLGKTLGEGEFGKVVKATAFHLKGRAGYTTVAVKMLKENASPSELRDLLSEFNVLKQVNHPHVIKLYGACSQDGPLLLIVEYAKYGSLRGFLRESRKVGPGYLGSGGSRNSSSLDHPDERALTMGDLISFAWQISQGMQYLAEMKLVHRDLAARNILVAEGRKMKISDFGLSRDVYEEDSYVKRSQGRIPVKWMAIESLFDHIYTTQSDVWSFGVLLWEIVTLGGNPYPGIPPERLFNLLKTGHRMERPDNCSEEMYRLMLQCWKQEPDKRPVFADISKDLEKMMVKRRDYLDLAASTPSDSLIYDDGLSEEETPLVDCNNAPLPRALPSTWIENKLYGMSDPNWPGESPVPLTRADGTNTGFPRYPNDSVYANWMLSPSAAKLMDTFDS

What is called IC50 is the point on the concentration scale where inhibition reaches its midpoint. For the compound `CCCOC(=O)c1c[nH]c2c(=O)[nH]c3ccc(S(=O)(=O)N(C)CCNC)cc3c12` [Compound 139, 8-[Methyl-(2-methylamino-ethyl)-sulfamoyl]-4-oxo-4,5-dihydro-3H-pyrrolo[2,3-c]quinoline-1-propyl carboxylate hydrochloride], the half-maximal inhibitory concentration (IC50) was less than 100 nM. In the case of `CCCOC(=O)c1c[nH]c2c(=O)[nH]c3ccc(S(=O)(=O)N(C)CCN(C)C(=O)OC(C)(C)C)cc3c12` [Compound 140, 8-{[2-(tert-Butoxycarbonyl-methyl-amino)-ethyl]-methyl-sulfamoyl}-4-oxo-4,5-dihydro-3H-pyrrolo[2,3-c]quinoline-1-propyl carboxylate], the concentration for half-maximal inhibition (IC50) lay in the range of 1000 to 10000 nM. Under `CCCOC(=O)c1c[nH]c2c(=O)[nH]c3ccc(S(=O)(=O)N(CCNC(C)C)C4CC4)cc3c12` [Compound 142, 8-[Cyclopropyl-(2-isopropylamino-ethyl)-sulfamoyl]-4-oxo-4,5-dihydro-3H-pyrrolo[2,3-c]quinoline-1-propyl carboxylate hydrochloride] stands 100 to 1000 nM; under `CCCOC(=O)c1c[nH]c2c(=O)[nH]c3ccc(S(=O)(=O)N(Cc4c[nH]cn4)C4CC4)cc3c12` [Compound 143, 8-[Cyclopropyl-(1H-imidazol-4-ylmethyl)-sulfamoyl]-4-oxo-4,5-dihydro-3H-pyrrolo[2,3-c]quinoline-1-propyl carboxylate hydrochloride], 100 to 1000 nM.

Take `CCCOC(=O)c1c[nH]c2c(=O)[nH]c3ccc(S(=O)(=O)N(C[C@H]4CCCN4C)C4CC4)cc3c12` [Compound 146, (R)-8-[Cyclopropyl-(1-methyl-pyrrolidin-2-ylmethyl)-sulfamoyl]-4-oxo-4,5-dihydro-3H-pyrrolo[2,3-c]quinoline-1-propyl carboxylate]: the IC50 lay within 100 to 1000 nM. The same measure for `CCCOC(=O)c1c[nH]c2c(=O)[nH]c3ccc(S(=O)(=O)N(C[C@H]4CCCN4C(=O)OC(C)(C)C)C4CC4)cc3c12` [Compound 147, (R)-8-[(1-tert-Butoxycarbony-pyrrolidin-2-ylmethyl)-cyclopropyl-sulfamoyl]-4-oxo-4,5-dihydro-3H-pyrrolo[2,3-c]quinoline-1-propyl carboxylate]: 1000 to 10000 nM; for `CCCOC(=O)c1c[nH]c2c(=O)[nH]c3ccc(S(=O)(=O)N(C[C@H]4CCCN4)C4CC4)cc3c12` [Compound 148, (R)-8-(Cyclopropyl-pyrrolidin-2-ylmethyl-sulfamoyl)-4-oxo-4,5-dihydro-3H-pyrrolo[2,3-c]quinoline-1-propyl carboxylate hydrochloride]: 100 to 1000 nM; for `C#CCN(C[C@@H]1CCCN1C)S(=O)(=O)c1ccc2[nH]c(=O)c3[nH]cc(C(=O)OCCC)c3c2c1` [Compound 151, (S)-8-[(1-Methyl-pyrrolidin-2-ylmethyl)-prop-2-ynyl-sulfamoyl]-4-oxo-4,5-dihydro-3H-pyrrolo[2,3-c]quinoline-1-propyl carboxylate]: 100 to 1000 nM. Turning to `CCCOC(=O)c1c[nH]c2c(=O)[nH]c3ccc(S(=O)(=O)N(C[C@H](C)NC(=O)OC(C)(C)C)C4CC4)cc3c12` [Compound 152, (S)-8-[(2-tert-Butoxycarbonylamino-propyl)-cyclopropyl-sulfamoyl]-4-oxo-4,5-dihydro-3H-pyrrolo[2,3-c]quinoline 1-propyl carboxylate], the 50% inhibitory concentration (IC50) was in the range of 100 to 1000 nM. In the case of `CCCOC(=O)c1c[nH]c2c(=O)[nH]c3ccc(S(=O)(=O)N(C[C@@H](C)NC(=O)OC(C)(C)C)C4CC4)cc3c12` [Compound 154, (R)-8-[(2-tert-Butoxycarbonylamino-propyl)-cyclopropyl-sulfamoyl]-4-oxo-4,5-dihydro-3H-pyrrolo[2,3-c]quinoline-1-propyl carboxylate], the 50% inhibitory concentration (IC50) is 1000 to 10000 nM. In the case of `C#CCN(CCNC)S(=O)(=O)c1ccc2[nH]c(=O)c3[nH]cc(C(=O)OCCC)c3c2c1` [Compound 156, 8-[(2-Methylamino-ethyl)-prop-2-ynyl-sulfamoyl]-4-oxo-4,5-dihydro-3H-pyrrolo[2,3-c]quinoline-1-propyl carboxylate hydrochloride], the IC50 is less than 100 nM.
